Earlier results, collected in patent publication US7153888B2, “Stabilization of benzoyl peroxide in solution” (Alpharx Inc., priority 2004, dated 2006).

Assays:
[1] = not given; remark: listed apart in the source

## O=C(OOC(=O)c1ccccc1)c1ccccc1 [benzoyl peroxide]
Common solvents such as alcohol, PEG and propylene glycol
  solubility: below 20 mg/ml
water-miscible solvent, water content grows from 0 to 25%
  drop of solubility: 2–4 orders of magnitude
[1]; in PEG 400
  stability by solvent: least stable
[1]; in the presence of ethanol and acidic chelating agents, stored at 30° C. or 40° C.
  time until destroyed: ≤ 1 month
[1]; polyethylene glycol ointment base, 24° C.
  first-order K value of decomposition: 0.028 day⁻¹
[1]; pure BP in different solvents, room temperature
  half-life (50% content decrease): 151 to 6380 h
[1]; suspension in polyethylene glycol ointment base, 50° C., 5 days
  potency of benzoyl peroxide suspension (decrease from 5%): less than 1%
